Patent US6271342A, “Sugar-modified cytostatics” (Bayer Aktiengesellschaft, priority 1995, dated 2001)
In brackets after ≈: the same amount, converted by molar mass. Where two headings read alike, the source gives them in different places.

Experiments:
[1] = Cleavage kinetics with human blood (HPLC); format: in vitro ADME; conditions: 37° C.
From the text: In Vitro Investigation of the Cleavability of the Glycoconjugates
Cleavage Kinetics With Human Blood

[2] = tested on: bone marrow parent cells of the mouse; assay: CSF-induced proliferation of bone marrow parent cells, in vitro; format: cell-based; conditions: recombinant murine GM-CSF, 7 days
Description: Bone marrow cells are flushed out of the femur of mice. 10^5 cells are incubated in McCoy SA medium (0.3% agar) together with recombinant murine GM-CSF (Genzyme; parent cell colony formation) and the substances (10^-4 to 100 μg/ml) at 37° C. and 7% CO2. 7 days later, the colonies ([…]) and clusters (17-50 cells) are counted.

[3] = tested on: hepatoma
Description: Cleavage Kinetics With Cells
(§9) 2.25 ml of PBS are incubated together with 225 μl of a cell suspension (30 mg/ml) and 25 μl of substrate stock solution (1 mg/ml in 3% dimethyl sulphoxide in PBS) at 37° C. After 1 hour and 24 hours, samples of in each case 1 ml are taken, mixed with 1 ml of ethanol and left to stand at 4° C. for 20 minutes. After centrifugation (5 minutes at 3500 rpm), 100 μl of supernatant are taken for the HPLC analysis.

[4] = tested on: B 16 F 10; assay: Growth inhibition test (MTT) for cytotoxic properties; format: cell-based, mouse; conditions: Table 1b
Outline: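 Cells in RPMI 1640 with 10% FCS pre-cultured 1 day at 37° C, then exposed to test substances in DMSO; growth checked after day 3 and day 6. Read-out by MTT, 5 h incubation, isopropanol solubilization, extinction at 540 nm.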

[5] = tested on: HT 29; assay: as above; format: cell-based, human
Outline: (§1)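 IC50 values come from an MTT read at 540 nm (5 h at 37 °C, 5 mg/ml MTT stock), taken on day 3 and day 6. Cells (HT 29, SW 480; 50,000 cells/ml in RPMI/10% FCS) were pre-cultured 1 day, then compound in DMSO was added.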

[6] = tested on: SW 480; assay: as above; format: cell-based, human
Outline: as §1

[7] = tested on: MEXF 989; assay: Two-layer soft agar culture of human tumour xenografts; format: cell-based; conditions: T/C ≤30%
Description: (§2) The in vitro activity of glycoconjugates of quinolone-a was determined on human tumour xenografts in a two-layer soft agar culture system according to Hamburger and Salmon (Science 197: 461-463).
(§3) The solid tumours were initially grown in the athymic naked mouse (NMRI nu/nu), obtained by surgery and comminuted mechanically. Individual cells were then obtained by incubation in an enzyme mixture of collagenase 0.05%, DNAse 0.07% and hyaluronidase 0.1% in RPMI at 37° C. for 30 minutes. The cells were washed 2× and then passed through a sieve of 200 μm and 20 μm mesh width.
(§4) The base layer comprises 0.2 ml of Iscoves's Modified Dulbeccos Medium with 20% foetal calf serum and 0.7% agar. 40,000 to 200,000 cells in 0.2 ml of the same medium and 0.4% agar were applied to this layer in 24 multiwell plates. The cytostatic substances were added in 0.2 ml of medium.
(§5) The cultures were incubated at 37° C. in a 7% CO2 atmosphere for 6 to 15 days. The colonies which had grown were then counted under an inverting microscope, the living colonies being stained with a tetrazolium chloride dyestuff 24 hours before the evaluation.
(§6) The effect of the active compound is expressed in per cent of surviving colonies compared with the colony count of untreated plates (T/C=colony count treated×100/control count untreated).
(§7) A substance is active if the T/C value is ≤30%.
(§8) This value is shown as the IC70 value in μg/ml in Table 8.

[8] = tested on: HT 29; assay: as above; format: cell-based; conditions: T/C ≤30%
Description: as §2, §3, §4, §5, §6, §7, §8

[9] = tested on: CXF 280; assay: as above; format: cell-based; conditions: T/C ≤30%
Description: as §2, §3, §4, §5, §6, §7, §8

[10] = tested on: OVXF 1023; assay: as above; format: cell-based; conditions: T/C ≤30%
Description: as §2, §3, §4, §5, §6, §7, §8

[11] = tested on: LXFL 529; assay: as above; format: cell-based; conditions: T/C ≤30%
Description: as §2, §3, §4, §5, §6, §7, §8

[12] = tested on: OVXF 899; assay: as above; format: cell-based; conditions: T/C ≤30%
Description: as §2, §3, §4, §5, §6, §7, §8

[13] = tested on: LXFS 538; assay: as above; format: cell-based; conditions: T/C ≤30%
Description: as §2, §3, §4, §5, §6, §7, §8

[14] = tested on: SW 480; assay: as above; format: cell-based; conditions: T/C ≤30%
Description: as §2, §3, §4, §5, §6, §7, §8

[15] = tested on: SW-480
Description: Cleavage Kinetics With Cells
as §9

[16] = tested on: hepatoma; assay: Cleavage kinetics with cells (HPLC); conditions: Table 2a; 37° C.; * = cleavage product is N-[D-alanyl]-batracyline
Description: Cleavage Kinetics With Cells
as §9

[17] = tested on: SW-480; assay: Cleavage kinetics with cells (HPLC); conditions: Table 2a; 37° C.; * = cleavage product is N-[D-alanyl]-batracyline
Description: Cleavage Kinetics With Cells
as §9

[18] = Acute toxicity, single administration; format: in vivo, nu/nu naked mice; conditions: for Individual dose tolerated in mg/kg of mouse, i.p.: single administration i.p., solution in dimethyl sulphoxide; for Individual dose tolerated in mg/kg of mouse, i.v.: aqueous solution
Description: Determination of the Acute Toxicity of Glycoconjugates of Batracyline (Single Administration)
The acute toxicity of the batracyline derivatives was determined on nu/nu naked mice.
The substances administered i.v., as aqueous solutions, and the substances administered i.p., as solutions in dimethyl sulphoxide, were injected once in concentrations of up to 400 mg of substance per kg of mouse.
The individual dose tolerated was calculated from the decrease in the weight of the animals up to 21 days after administration and from the number of animals surviving.

[19] = Table 2a, * = cleavage product is N-[D-alanyl]-batracyline
[20] = Table 1a, glycoconjugates of batracyline

% cleavage in human blood 1 hour ([1]; Table 2b) | % cleavage in human blood 24 hours ([1]; Table 2b) | % cleavage in hepatoma 1 hour [3] | % cleavage in hepatoma 24 hours [3] | % cleavage in SW-480 1 hour [15] | % cleavage in SW-480 24 hours [15] | Compound | IC50 [μg/ml] CSF-induced proliferation of bone marrow parent cells of the mouse [2] | IC50 [4] | IC50 ([5]; Table 1b) | IC50 ([6]; Table 1b) | IC70 /μg/ml [7] | IC70 /μg/ml [8] | IC70 /μg/ml [9] | IC70 /μg/ml [10] | IC70 /μg/ml [11] | IC70 /μg/ml [12] | IC70 /μg/ml [13] | IC70 /μg/ml [14] | % cleavage in hepatoma 1 hour [16] | % cleavage in SW-480 1 hour [17] | other results
0% | 0% | 0% | 0% | 0% | 0% | COC1C(O)C(C)OC(Oc2ccc(NC(=S)NCCCCC(NC(=S)Nc3ccc(OC4OC(C)C(O)C(OC)C4O)cc3)C(=O)NC3C=CCC4CN(c5c(F)cc6c(=O)c(C(=O)O)cn(C7CC7)c6c5Cl)CC43)cc2)C1O (mixture of isomers) [Example 11.7, N-{N^α,N^ε -Bis-[O-(3--methyl-β-L-fucosyl)-4-hydroxy-phenylamino-thiocarbonyl]-D -lysyl}-quinolone-a] | 2.9 µg/mL | 15 µM | 13 µM | 12 µM | 3 µg/mL | 56 µg/mL | > 100 µg/mL | 136 µg/mL | 4 µg/mL | 234 µg/mL | 18 µg/mL | 18 µg/mL | – | – | –
0% | 0% | 0% | 0% | 0% | 0% | CO[C@H]1[C@H](O)[C@@H](Oc2ccc(NC(=S)NCCCC[C@H](NC(=S)Nc3ccc(O[C@H]4O[C@@H](C)[C@@H](O)[C@@H](OC)[C@@H]4O)cc3)C(=O)N[C@@H](C)C(=O)NC3C=CCC4CN(c5c(F)cc6c(=O)c(C(=O)O)cn(C7CC7)c6c5Cl)CC43)cc2)O[C@@H](C)[C@H]1O (stereo partly drawn) [Example 11.2, N-{N^α,N^ε -Bis-[O-(3-O-methyl-β-L-fucosyl)-4-hydroxy-phenylamino-thiocarbonyl]-lysyl-alanyl}-quinolone-a] | 22.5 µg/mL | 9 µM | – | 30 µM | – | – | – | – | – | – | – | – | – | – | –
0% | 0% | 0% | 0% | 0% | 0% | CO[C@H]1[C@H](O)[C@@H](Oc2ccc(NC(=S)N[C@H](C)C(=O)NC3C=CCC4CN(c5c(F)cc6c(=O)c(C(=O)O)cn(C7CC7)c6c5Cl)CC43)cc2)O[C@@H](C)[C@H]1O (stereo partly drawn) [Example 12.1, N-{N'-[O-(3-O-Methyl-β-L-fucosyl)-4hydroxy-phenylamino-thiocarbonyl]-D -alanyl}-quinolone-a] | 0.21 µg/mL | 0.1 µM | 1.5 µM | 1 µM | < 0.3 µg/mL | 6 µg/mL (≈ 7.5 µM) | 70 µg/mL (≈ 87.5 µM) | 12 µg/mL (≈ 15 µM) | 0.9 µg/mL (≈ 1.12 µM) | 45 µg/mL (≈ 56.2 µM) | 0.4 µg/mL (≈ 0.5 µM) | 8 µg/mL (≈ 10 µM) | – | – | –
– | – | – | – | – | – | COC1C(O)C(C)OC(Oc2ccc(NC(=S)NC(CCCCN)C(=O)NC3C=CCC4CN(c5c(F)cc6c(=O)c(C(=O)O)cn(C7CC7)c6c5Cl)CC43)cc2)C1O [Example 12.5, N-{N^α -[O-(3-O-Methyl-β-L-fucosyl)-4-hydroxy-phenylamino-thiocarbonyl]-lysyl}-quinolone-a] | – | 0.2 µM | 4 µM | 1 µM | 0.5 µg/mL (≈ 0.583 µM) | 11 µg/mL (≈ 12.8 µM) | < 0.3 µg/mL | 9 µg/mL (≈ 10.5 µM) | 2 µg/mL (≈ 2.33 µM) | 55 µg/mL (≈ 64.1 µM) | < 0.3 µg/mL | 10 µg/mL (≈ 11.7 µM) | – | – | –
– | – | – | – | – | – | N-{N^ε -[O-(3-O-Carboxymethyl-β-L-fucosyl)-4-hydroxy-phenylamino-thiocarbony l]-lysyl-D-alanyl}-batracyline, sodium salt [Example 3.9] | – | – | – | – | – | – | – | – | – | – | – | – | 32% | 28% | % cleavage in human blood 1 hour [1, 19]: 0%; % cleavage in human blood 24 hours [1, 19]: 54%; % cleavage in hepatoma 24 hours [16]: 100%; % cleavage in SW-480 24 hours [17]: 100%; individual dose of the substances which can be tolerated ([18]; single administration): more than 200 mg of substance per kg of mouse; Individual dose tolerated in mg/kg of mouse, i.p. [18]: 200 mg/kg of mouse; Individual dose tolerated in mg/kg of mouse, i.v. ([18]; single administration i.v.): 200 mg/kg of mouse; IC50 [5, 20]: 55 µM; IC50 [6, 20]: 40 µM
– | – | – | – | – | – | N-{N^α,N^ε -Bis-[O-(3-O-methyl-β-L-fucosyl)-4-hydroxy-phenylamino-thiocarbonyl]- lysyl-D-alanyl}-batracyline [Example 6.2] | – | – | – | – | – | – | – | – | – | – | – | – | 0% | 0% | % cleavage in hepatoma 24 hours [16]: 0%; % cleavage in SW-480 24 hours [17]: 0%; acute toxicity detected ([18]; dose of 400 mg/kg, single administration): no acute toxicity; individual dose of the substances which can be tolerated ([18]; single administration): more than 200 mg of substance per kg of mouse; Individual dose tolerated in mg/kg of mouse, i.p. [18]: > 400 mg/kg of mouse; IC50 [5, 20]: 50 µM; IC50 [6, 20]: 40 µM
– | – | – | – | – | – | COC1C(O)C(C)OC(Oc2ccc(NC(=S)NC(CCCCN)C(=O)NC3C=CC(C)C4CN(c5cc6c(cc5F)c(=O)c(C(=O)O)c5scc(C)n56)CC34)cc2)C1O.Cl (mixture of isomers) [Example 14.4, N-{N^α -[O-(3-O-Methyl-β-L-fucopyranosyl)-4-hydroxy-phenylamino-thiocarbonyl]-D-lysyl}-quinolone-c, hydrochloride] | 3.6 µg/mL | 0.4 µM | 1 µM | 1.5 µM | – | – | – | – | – | – | – | – | – | – | –
– | – | – | – | – | – | N-{N^ε -[O-(3-O-Methyl-β-L-fucosyl)-4-hydroxy-phenylamino-thiocarbonyl]-lysy l-D-alanyl}-batracyline, trifluoroacetate [Example 3.4] | – | – | – | – | – | – | – | – | – | – | – | – | 98% | 74% | Individual dose tolerated in mg/kg of mouse, i.p. [18]: 200 mg/kg of mouse; animals died ([18]; single administration i.v.): 2; Individual dose tolerated in mg/kg of mouse, i.v. ([18]; single administration i.v.): < 100 mg/kg of mouse; IC50 [5, 20]: 65 µM; IC50 [6, 20]: 100 µM
